Data: patent US12606541B2, “PPARg modulators and methods of use” (Eisai R&D Management Co., Ltd., priority 2020, dated 2026)
Like-named read-outs stand apart in the source and are kept apart here.

What was measured:
His6-TEV-PPARγ-(234-505) = target: T1, His6-TEV-PPARγ-(234-505) (Homo sapiens, UniProt P37231); assay: TR-FRET Assay to Measure Co-R Peptide Recruitment to PPARγ; format: biochemical; details: Co-R peptide (SMRT-ID2) recruitment; top final concentration 20 μM; read-out: TR-FRET i-Ag; AC50
T1 construct: The His6-TEV-PPARγ-(234-505) protein for assay was expressed and purified; TEV cleavage site (N); made in house
T1 sequence (P37231 234-505): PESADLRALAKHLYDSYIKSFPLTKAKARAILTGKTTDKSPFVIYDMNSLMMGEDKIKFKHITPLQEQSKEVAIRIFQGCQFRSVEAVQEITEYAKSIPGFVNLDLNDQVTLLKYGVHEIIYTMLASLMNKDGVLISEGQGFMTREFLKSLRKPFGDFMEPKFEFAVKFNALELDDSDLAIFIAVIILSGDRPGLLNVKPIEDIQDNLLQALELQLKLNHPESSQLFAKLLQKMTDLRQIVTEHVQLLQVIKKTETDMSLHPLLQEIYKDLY
How it was run: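 Corepressor recruitment is measured by adding terbium-labeled anti-His antibody and FITC SMRT-ID2 peptide, at 5 and 200 nM final, after a 20-minute room-temperature protein–compound incubation. After one further hour, signal is converted to percent response between DMSO and 500 nM T0070907 wells.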

UM-UC-9 engineered cells = assay: Cell proliferation / short-term viability assay, CellTiter-Glo 144 h; format: cell-based, human; details: read-out: CTGlo 144 h UMUC9.5, G150
How it was run: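 Viability read by CellTiter-Glo 2.0 luminescence at day 7 versus DMSO-vehicle wells and a T0 plate measured on day 0. Cells: UM-UC-9 engineered assay-ready stocks, 500 cells/well in high-glucose DMEM with 10% FBS, 37° C, 5% CO2.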

| Compound | AC50 (His6-TEV-PPARγ-(234-505)) [nM] | IC50 (UM-UC-9 engineered cells) [nM] | IC50 (UM-UC-9 engineered cells; Homo sapiens, UM-UC-9, 144 h) [nM] |
| --- | --- | --- | --- |
| COc1cc(-c2cc(C(=O)N3CC[C@H](C(=O)NC(C)C45CCC(O)(CC4)CC5)CC34CC4)n[nH]2)c(F)cn1 (single isomer, unassigned) [Example 411-A] | 160 | 527 | – |
| COc1cc(-c2cc(C(=O)N3CC[C@H](C(=O)NC(C)c4cn5c(n4)COCC5)CC34CC4)n[nH]2)c(F)cn1 (single isomer, unassigned) [Example 415-A] | 88.1 | 304 | – |
| COc1cc(-c2cc(C(=O)N3CC[C@H](C(=O)NC(C)c4cn5c(n4)COCC5)CC34CC4)n[nH]2)c(F)cn1 (single isomer, unassigned) [Example 415-B] | 283 | 867 | – |
| COc1cc(-c2cc(C(=O)N3CC[C@H](C(=O)NC4CCC(N5CCOCC5)CC4)CC34CC4)n[nH]2)c(F)cn1 (single isomer, unassigned) [Example 418-A] | 67.4 | – | 152 |
| COc1cc(-c2cc(C(=O)N3CC[C@H](C(=O)NC4CCC(C)(C)N(C)C4)CC34CC4)n[nH]2)c(F)cn1 (single isomer, unassigned) [Example 424-A] | 1030 | 2980 | – |
| COc1cc(-c2cc(C(=O)N3CC[C@H](C(=O)NC4CCC(C)(C)N(C)C4)CC34CC4)n[nH]2)c(F)cn1 (single isomer, unassigned) [Example 424-B] | 209 | 929 | – |
| COc1cc(-c2cc(C(=O)N3CC[C@H](C(=O)NC4CCN(CCF)C(C)(C)C4)CC34CC4)n[nH]2)c(F)cn1 (single isomer, unassigned) [Example 425-A] | 2510 | > 10000 | – |
| COc1cc(-c2cc(C(=O)N3CC[C@H](C(=O)NC4CCN(CCF)C(C)(C)C4)CC34CC4)n[nH]2)c(F)cn1 (single isomer, unassigned) [Example 425-B] | 917 | > 10000 | – |
| COc1cc(-c2cc(C(=O)N3CC[C@H](C(=O)NC4CN(C5CCOC5)C4)CC34CC4)n[nH]2)c(F)cn1 (single isomer, unassigned) [Example 433-A] | 126 | 347 | – |
| COc1cc(-c2cc(C(=O)N3CC[C@H](C(=O)NC4CN(C5CCOC5)C4)CC34CC4)n[nH]2)c(F)cn1 (single isomer, unassigned) [Example 433-B] | 61.1 | 249 | – |
| COc1cc(-c2cc(C(=O)N3CC[C@H](C(=O)Nc4cnn5ccc(C(C)O)nc45)CC34CC4)n[nH]2)c(F)cn1 (single isomer, unassigned) [Example 445-A] | 0.6 | 15.4 | – |
| COc1cc(-c2cc(C(=O)N3CC[C@H](C(=O)Nc4cnn5ccc(C(C)O)nc45)CC34CC4)n[nH]2)c(F)cn1 (single isomer, unassigned) [Example 445-B] | 11 | 116 | – |
| COc1cc(-c2cc(C(=O)N3CC[C@H](C(=O)NC4CCN(c5ccnc6[nH]ncc56)C4)CC34CC4)n[nH]2)c(F)cn1 (single isomer, unassigned) [Example 450-A] | 3.3 | 162 | – |
| COc1cc(-c2cc(C(=O)N3CC[C@H](C(=O)NC4CCN(c5ccnc6[nH]ncc56)C4)CC34CC4)n[nH]2)c(F)cn1 (single isomer, unassigned) [Example 450-B] | 6.8 | 834 | – |
| COc1cc(-c2cc(C(=O)N3CC[C@H](C(=O)NC4CCN(c5cnnc(C)c5)C4)CC34CC4)n[nH]2)c(F)cn1 (single isomer, unassigned) [Example 452-A] | 8.7 | 2010 | – |
| COc1cc(-c2cc(C(=O)N3CC[C@H](C(=O)NC4CCN(c5cnnc(C)c5)C4)CC34CC4)n[nH]2)c(F)cn1 (single isomer, unassigned) [Example 452-B] | 142 | > 10000 | – |

| Compound | AC50 (His6-TEV-PPARγ-(234-505)) [nM] | IC50 (UM-UC-9 engineered cells) [nM] | IC50 (UM-UC-9 engineered cells; Homo sapiens, UM-UC-9, 144 h) [nM] |
| --- | --- | --- | --- |
| COc1cc(-c2cc(C(=O)N3CC[C@H](C(=O)NC4CCN(c5cnc(C)nc5)C4)CC34CC4)n[nH]2)c(F)cn1 (single isomer, unassigned) [Example 453-A] | 6 | 14.7 | – |
| COc1cc(-c2cc(C(=O)N3CC[C@H](C(=O)NC4CCN(c5cnc(C)nc5)C4)CC34CC4)n[nH]2)c(F)cn1 (single isomer, unassigned) [Example 453-B] | 8.2 | 398 | – |
| COc1cc(-c2cc(C(=O)N3CC[C@H](C(=O)NC4CCN(CC5(O)COC5)C4)CC34CC4)n[nH]2)c(F)cn1 (single isomer, unassigned) [Example 454-A] | 88.7 | 1790 | – |
| COc1cc(-c2cc(C(=O)N3CC[C@H](C(=O)NC4CCN(CC5(O)COC5)C4)CC34CC4)n[nH]2)c(F)cn1 (single isomer, unassigned) [Example 454-B] | 100 | 1880 | – |
| COc1cc(-c2cc(C(=O)N3CC[C@H](C(=O)NC4CCN(CC(F)(F)CO)C4)CC34CC4)n[nH]2)c(F)cn1 (single isomer, unassigned) [Example 459-A] | 8 | 275 | – |
| COc1cc(-c2cc(C(=O)N3CC[C@H](C(=O)NC4CCN(CC(F)(F)CO)C4)CC34CC4)n[nH]2)c(F)cn1 (single isomer, unassigned) [Example 459-B] | 13.1 | 83.4 | – |
| COc1cc(-c2cc(C(=O)N3CC[C@H](C(=O)NC4CCN(C5COC56CNC6)C4)CC34CC4)n[nH]2)c(F)cn1 (single isomer, unassigned) [Example 461-A] | 272 | > 10000 | – |
| COc1cc(-c2cc(C(=O)N3CC[C@H](C(=O)NC4CCN(C5COC56CNC6)C4)CC34CC4)n[nH]2)c(F)cn1 (single isomer, unassigned) [Example 461-B] | 324 | > 10000 | – |
| COc1cc(-c2cc(C(=O)N3CC[C@H](C(=O)NC4CCN(C5COC56CNC6)C4)CC34CC4)n[nH]2)c(F)cn1 (single isomer, unassigned) [Example 461-C] | 375 | > 10000 | – |
| COc1cc(-c2cc(C(=O)N3CC[C@H](C(=O)NC4CCN(C5COC56CNC6)C4)CC34CC4)n[nH]2)c(F)cn1 (single isomer, unassigned) [Example 461-D] | 388 | > 10000 | – |
| COc1cc(-c2cc(C(=O)N3CC[C@H](C(=O)NCc4ncc(N5CC6CC5CN6)cc4Cl)CC34CC4)n[nH]2)c(F)cn1 (single isomer, unassigned) [Example 462-A] | 22.5 | 551 | – |
| COc1cc(-c2cc(C(=O)N3CC[C@H](C(=O)NCc4ncc(N5CC6CC5CN6)cc4Cl)CC34CC4)n[nH]2)c(F)cn1 (single isomer, unassigned) [Example 462-B] | 14.4 | 573 | – |
| COc1cc(-c2cc(C(=O)N3CC[C@H](C(=O)NC4CCN(C5COC56CCC6)C4)CC34CC4)n[nH]2)c(F)cn1 (single isomer, unassigned) [Example 464-D] | 7.6 | – | 25.2 |
| COc1cc(-c2cc(C(=O)N3CC[C@H](C(=O)NCc4ncc(N5CC6CC5CN6)cn4)CC34CC4)n[nH]2)c(F)cn1 (single isomer, unassigned) [Example 467-A] | 327 | > 10000 | – |
| COc1cc(-c2cc(C(=O)N3CC[C@H](C(=O)NCc4ncc(N5CC6CC5CN6)cn4)CC34CC4)n[nH]2)c(F)cn1 (single isomer, unassigned) [Example 467-B] | 644 | > 10000 | – |
| COc1cc(-c2cc(C(=O)N3CC[C@H](C(=O)NC4CCC(O)(C(F)(F)F)C(O)C4)CC34CC4)n[nH]2)c(F)cn1 (single isomer, unassigned) [Example 474-C] | 5.4 | – | 23.6 |
